The values that follow come from patent EP2710378B1, “METHOD TO PROGNOSE VIRAL INFECTION BY MEASURING T CELL RESPONSE OR AUTO-ANTIBODIES TO APOPTOTIC EPITOPES” (Università degli Studi di Roma "La Sapienza", priority 2011, dated 2012).

SMILES strings stand for the structures.

For this assay, the system named is CD8+pentamer+ TEM cells. Description: Cross-presentation of apoptotic cells. The settings on record: DCs pulsed with apoptotic T cells previously treated with the inhibitor; five independent patients. The class given is cell-based, patients with acute HCV infection. As to the method:
[…]. Then, cells were induced to apoptosis by incubation with 500 ng/ml anti-Fas (anti-CD95 mAb [clone CH11], Upstate Biotechnology) for at least 6 h. Apoptotic cells were determined by staining with Annexin- V (ApoAlert Apoptosis Kit, Clontech Laboratories Inc), PI (Sigma-Aldrich) and flow-cytometry analysis. PBMCs were double-stained with pentamers and mAb to CD8 and cultured with iDCs that had been pulsed or not with apoptotic cloned T cells. After 6-8 h, cells were tested for their capacity to produce IL-17 and IFN-γ by intracellular cytokine staining (ICS) as described above. Cells were washed, acquired with a FACSCanto flow cytometer and analyzed with FACSDiva analysis software (Becton Dickinson) or FlowJo software (Treestar).
It is for interest the finding that fresh apoptotic epitope-specific CD8^+pentamer^+ TEM cells promptly produced IFN-γ or IL-17 ex vivo within a few hours of contact with DCs that had been pulsed with apoptotic T cells (i.e., through the cross-presentation mechanism) (Figure 25A,B). […] This phenomenon was confirmed in five independent patients (Figure 25B). The frequencies of apoptotic epitope-specific CD8^+ T cells (but not those of viral epitope-specific CD8^+ T cells [data not shown]) correlated with the number of circulating apoptotic T cells (Figure 25C). […]

`COC(=O)CC[C@H](NC(=O)[C@H](CC(=O)OC)NC(=O)OCc1ccccc1)C(=O)N[C@H](C(=O)N[C@@H](CC(=O)OC)C(=O)CF)C(C)C` [C3I, Z-DEVD-FMK]: the “IFN-γ or IL-17 production” value is listed as “marked decrease”.
